Results published in the NIST ThermoML archive (doi:10.1021/je900347f).

Assay: excess molar enthalpy (molar enthalpy of mixing); xn = mol fraction of the nth substance listed
Conditions: 308.15 K, 101 kPa, Liquid, Flow calorimetry

C1CCNCC1 [piperidine] + C1CCCCC1
Conditions	excess molar enthalpy [kcal/mol]
x2 = 0.101	0.0617
x2 = 0.201	0.114
x2 = 0.3	0.155
x2 = 0.4	0.186
x2 = 0.499	0.202
x2 = 0.601	0.202
x2 = 0.679	0.19
x2 = 0.801	0.152
x2 = 0.901	0.0935

C1CCNCC1 [piperidine] + C1CCOCC1
Conditions	excess molar enthalpy [kcal/mol]
x2 = 0.102	0.0249
x2 = 0.196	0.0435
x2 = 0.301	0.0581
x2 = 0.397	0.0667
x2 = 0.497	0.0698
x2 = 0.598	0.0679
x2 = 0.7	0.06
x2 = 0.801	0.0464
x2 = 0.893	0.0277

C1CCOCC1 [tetrahydropyran] + C1CCCCC1
Conditions	excess molar enthalpy [kcal/mol]
x2 = 0.101	0.0375
x2 = 0.2	0.0703
x2 = 0.3	0.0985
x2 = 0.4	0.117
x2 = 0.499	0.126
x2 = 0.606	0.124
x2 = 0.699	0.11
x2 = 0.8	0.0848
x2 = 0.9	0.0473
